Results reported in patent US10618918B2, “Substituted boronic acids as antimicrobials” (priority 2015, dated 2020).
Like-named read-outs stand apart in the source and are kept apart here.

Legend:
KP1004 KPC-2 [1] = experiment: Biapenem potentiation (MPC@1), strain KP1004 KPC-2; assay type: cell-based; conditions: minimum BLI concentration inhibiting growth with biapenem 1 μg/mL; tested up to 40 μg/mL
Method: (§1) Biapenem was present in the test medium at 1 μg/mL. […] Table 3 summarizes the BLI potency of biapenem potentiation (MPC@1) for two strains overexpressing class A (KPC) and class D (OXA-48) carbapenemases. Biapenem MIC for each strain is also shown.

KP1086 OXA-48 = experiment: Biapenem potentiation (MPC@1), strain KP1086 OXA-48; assay type: cell-based; conditions: minimum BLI concentration inhibiting growth with biapenem 1 μg/mL; tested up to 40 μg/mL
Method: as §1

AB1053 OXA-72 = experiment: Meropenem potentiation (MPC@8), strain AB1053 OXA-72; assay type: cell-based, Acinetobacter baumannii; conditions: minimum BLI concentration inhibiting growth with meropenem 8 μg/mL; tested up to 20 μg/mL
AB1054 OXA-23 = experiment: Meropenem potentiation (MPC@8), strain AB1054 OXA-23; assay type: cell-based, Acinetobacter baumannii; conditions: minimum BLI concentration inhibiting growth with meropenem 8 μg/mL; tested up to 20 μg/mL
[2] = target: T1, purified class A, C and D enzymes (β-lactamases) (Acinetobacter baumannii, UniProt Q9L4P2); experiment: biochemical; assay type: biochemical; conditions: purified OXA-23; nitrocefin (NCF) as reporter substrate
T1 construct: rows headed: Ki (OXA-23, NCF), uM; other: purified OXA-23; nitrocefin (NCF) as reporter substrate

[3] = target: purified class A, C and D enzymes (β-lactamases) (Enterobacter cloacae, UniProt P05364); experiment: biochemical; assay type: biochemical
[4] = target: purified class A, C and D enzymes (β-lactamases) (Escherichia coli, UniProt Q9L5C7); experiment: biochemical; assay type: biochemical; conditions: purified CTX-M-14; nitrocefin (NCF) as reporter substrate
[5] = target: purified class A, C and D enzymes (β-lactamases) (Klebsiella pneumoniae, UniProt Q6XEC0); experiment: biochemical; assay type: biochemical; conditions: purified OXA-48; nitrocefin (NCF) as reporter substrate
[6] = target: purified class A, C and D enzymes (β-lactamases) (Klebsiella pneumoniae, UniProt Q9F663); experiment: biochemical; assay type: biochemical; conditions: purified KPC-2; nitrocefin (NCF) as reporter substrate
[7] = target: T2, purified class A, C and D enzymes (β-lactamases) (Pseudomonas aeruginosa, UniProt P24735); experiment: biochemical; assay type: biochemical
T2 construct: rows headed: Ki (Pa-AmpC, NCF), uM; other: purified Pa-AmpC; nitrocefin (NCF) as reporter substrate

ECL1002 = experiment: Aztreonam potentiation (MPC@4), strain ECL1002; conditions: minimum BLI concentration inhibiting growth with aztreonam 4 μg/mL; tested up to 40 μg/mL
ec308 SHV-5 = experiment: Aztreonam potentiation (MPC@4), strain ec308 SHV-5; conditions: minimum BLI concentration inhibiting growth with aztreonam 4 μg/mL; tested up to 40 μg/mL
ec302 TEM-10 = experiment: Aztreonam potentiation (MPC@4), strain ec302 TEM-10; conditions: minimum BLI concentration inhibiting growth with aztreonam 4 μg/mL; tested up to 40 μg/mL
KP1004 KPC-2 [8] = experiment: Aztreonam potentiation (MPC@4), strain KP1004 KPC-2; conditions: minimum BLI concentration inhibiting growth with aztreonam 4 μg/mL; tested up to 40 μg/mL
EC1010 CMY-6 = experiment: Aztreonam potentiation (MPC@4), strain EC1010 CMY-6; conditions: minimum BLI concentration inhibiting growth with aztreonam 4 μg/mL; tested up to 40 μg/mL
KP1010 SHV-12 = experiment: Aztreonam potentiation (MPC@4), strain KP1010 SHV-12; conditions: minimum BLI concentration inhibiting growth with aztreonam 4 μg/mL; tested up to 40 μg/mL
KP1009 CTX-M-15 = experiment: Aztreonam potentiation (MPC@4), strain KP1009 CTX-M-15; conditions: minimum BLI concentration inhibiting growth with aztreonam 4 μg/mL; tested up to 40 μg/mL
KP1005 CTX-M-14 = experiment: Tigemonam potentiation (MPC@4), strain KP1005 CTX-M-14; conditions: minimum BLI concentration inhibiting growth with tigemonam 4 μg/mL; tested up to 40 μg/mL

T2 sequence (P24735 whole entry): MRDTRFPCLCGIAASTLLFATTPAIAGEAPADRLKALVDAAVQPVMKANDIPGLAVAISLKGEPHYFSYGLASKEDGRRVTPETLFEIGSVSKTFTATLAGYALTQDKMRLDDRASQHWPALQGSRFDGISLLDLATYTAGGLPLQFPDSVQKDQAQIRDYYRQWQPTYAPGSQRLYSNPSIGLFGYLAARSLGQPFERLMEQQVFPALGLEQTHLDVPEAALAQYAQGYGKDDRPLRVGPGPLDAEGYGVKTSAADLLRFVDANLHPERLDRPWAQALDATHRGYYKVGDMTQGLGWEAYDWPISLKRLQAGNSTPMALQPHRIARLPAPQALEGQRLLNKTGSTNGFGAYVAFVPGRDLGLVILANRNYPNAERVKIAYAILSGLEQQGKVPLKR
T1 sequence (Q9L4P2 whole entry): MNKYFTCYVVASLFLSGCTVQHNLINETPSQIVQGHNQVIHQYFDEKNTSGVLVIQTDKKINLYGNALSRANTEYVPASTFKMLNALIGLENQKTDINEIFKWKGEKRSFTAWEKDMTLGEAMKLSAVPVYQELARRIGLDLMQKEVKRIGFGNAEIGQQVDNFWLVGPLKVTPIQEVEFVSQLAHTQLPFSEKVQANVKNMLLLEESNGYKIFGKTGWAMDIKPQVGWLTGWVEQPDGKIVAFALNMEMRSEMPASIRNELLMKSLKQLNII
purified class A, C and D enzymes (β-lactamases) (Escherichia coli, UniProt Q9L5C7), sequence (Q9L5C7 entry or part of it): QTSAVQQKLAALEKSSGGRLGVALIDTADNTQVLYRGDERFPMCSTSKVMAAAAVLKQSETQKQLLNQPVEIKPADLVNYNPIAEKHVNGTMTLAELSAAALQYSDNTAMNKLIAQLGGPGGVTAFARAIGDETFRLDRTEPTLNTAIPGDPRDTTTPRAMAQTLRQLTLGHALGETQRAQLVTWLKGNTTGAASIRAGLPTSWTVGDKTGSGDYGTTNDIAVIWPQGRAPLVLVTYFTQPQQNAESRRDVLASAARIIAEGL
purified class A, C and D enzymes (β-lactamases) (Enterobacter cloacae, UniProt P05364), sequence (P05364 21-381): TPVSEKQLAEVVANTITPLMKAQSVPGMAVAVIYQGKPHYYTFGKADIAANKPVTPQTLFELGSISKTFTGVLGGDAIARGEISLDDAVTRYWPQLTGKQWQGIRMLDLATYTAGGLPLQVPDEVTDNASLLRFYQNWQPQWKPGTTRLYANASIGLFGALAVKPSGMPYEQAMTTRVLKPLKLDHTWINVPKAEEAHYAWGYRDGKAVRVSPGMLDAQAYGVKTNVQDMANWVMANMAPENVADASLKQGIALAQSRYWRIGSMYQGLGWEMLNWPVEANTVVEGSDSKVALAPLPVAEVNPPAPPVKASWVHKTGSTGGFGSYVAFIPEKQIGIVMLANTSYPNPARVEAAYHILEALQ

SMILES	BPM MPC1 KP1004 KPC-2 (KP1004 KPC-2 [1])	BPM MPC1 OXA-48 KP1086 (KP1086 OXA-48)	MPM MPC8 AB1053 OXA-72 (AB1053 OXA-72)	MPM MPC8 AB1054 OXA-23 (AB1054 OXA-23)	Ki [2]	Ki (P99, NCF), uM [3]	Ki (CTX-M-14, NCF), uM [4]	Ki (OXA-48, NCF), uM [5]	Ki (KPC-2, NCF), uM [6]	Ki [7]	AZT MPC4 ECL1002 (ECL1002)	AZT MPC4 SHV-5 ec308 (ec308 SHV-5)	AZT MPC4 TEM-10 ec302 (ec302 TEM-10)	AZT MPC4 KPC-2 KP1004 (KP1004 KPC-2 [8])	AZT MPC4 CMY-6 EC1010 (EC1010 CMY-6)	AZT MPC4 SHV-12 KP1010 (KP1010 SHV-12)	AZT MPC4 CTX-M-15 KP1009 (KP1009 CTX-M-15)	TIG MPC4 CTX-M-14 KP1005 (KP1005 CTX-M-14)	Ki (P99, NCF), uM ([3]; purified P99, nitrocefin (NCF) as reporter substrate)	Ki ([7]; purified Pa-AmpC, nitrocefin (NCF) as reporter substrate, read-out: Ki (Pa-AmpC, NCF))
[2H]C1([2H])Cc2ccc(OC)c(C(=O)[O-])c2O[B-]1(O)O.[Na+].[Na+] [Compound 60, Disodium; 3,3-dideuterio-4,4-dihydroxy-8-methoxy-5-oxa-4-boranuidabicyclo[4.4.0]deca-1(10),6,8-triene-7-carboxylate]	X (X = MPC@1 ≤ 5 μg/mL)	X (X = MPC@1 ≤ 5 μg/mL)	X (X = MPC@1 ≤ 5 μg/mL)	X (X = MPC@1 ≤ 5 μg/mL)	< 100 nM	X (key: X = Ki ≤ 0.1 μM; Y = 0.1 μM < Ki ≤ 1 μM; Z = Ki > 1 μM)	X (X = Ki ≤ 0.1 μM)	X (X = Ki ≤ 0.1 μM)	X (X = Ki ≤ 0.1 μM)	< 100 nM	X (X = MPC@4 ≤ 5 μg/mL)	X (X = MPC@4 ≤ 5 μg/mL)	X (X = MPC@4 ≤ 5 μg/mL)	X (X = MPC@4 ≤ 5 μg/mL)	X (X = MPC@4 ≤ 5 μg/mL)	X (X = MPC@4 ≤ 5 μg/mL)	X (X = MPC@4 ≤ 5 μg/mL)	X (X = MPC@4 ≤ 5 μg/mL)	–	–
O=C([O-])c1c(OCC#CCN2CCC2)ccc2c1O[B-](O)(O)CC2.[Na+].[Na+] [Compound 62, Disodium; 8-[4-(azetidin-1-yl)but-2-ynoxy]-4,4-dihydroxy-5-oxa-4-boranuidabicyclo[4.4.0]deca-1(6),7,9-triene-7-carboxylate]	X (X = MPC@1 ≤ 5 μg/mL)	X (X = MPC@1 ≤ 5 μg/mL)	X (X = MPC@1 ≤ 5 μg/mL)	X (X = MPC@1 ≤ 5 μg/mL)	< 100 nM	X (key: X = Ki ≤ 0.1 μM; Y = 0.1 μM < Ki ≤ 1 μM; Z = Ki > 1 μM)	X (X = Ki ≤ 0.1 μM)	X (X = Ki ≤ 0.1 μM)	X (X = Ki ≤ 0.1 μM)	< 100 nM	X (X = MPC@4 ≤ 5 μg/mL)	X (X = MPC@4 ≤ 5 μg/mL)	X (X = MPC@4 ≤ 5 μg/mL)	X (X = MPC@4 ≤ 5 μg/mL)	X (X = MPC@4 ≤ 5 μg/mL)	X (X = MPC@4 ≤ 5 μg/mL)	X (X = MPC@4 ≤ 5 μg/mL)	Y (Y = 5 μg/mL < MPC@4 ≤ 20 μg/mL)	–	–
O=C(O)c1c(CNc2nncs2)ccc2c1OB(O)CC2 [Compound 64, 2-Hydroxy-7-[(1,3,4-thiadiazol-2-ylamino)methyl]-3,4-dihydro-1,2-benzoxaborinine-8-carboxylic acid]	X (X = MPC@1 ≤ 5 μg/mL)	Y (Y = 5 μg/mL < MPC@1 ≤ 20 μg/mL)	Y (Y = 5 μg/mL < MPC@1 ≤ 20 μg/mL)	Y (Y = 5 μg/mL < MPC@1 ≤ 20 μg/mL)	< 100 nM	–	X (X = Ki ≤ 0.1 μM)	X (X = Ki ≤ 0.1 μM)	X (X = Ki ≤ 0.1 μM)	–	X (X = MPC@4 ≤ 5 μg/mL)	X (X = MPC@4 ≤ 5 μg/mL)	X (X = MPC@4 ≤ 5 μg/mL)	X (X = MPC@4 ≤ 5 μg/mL)	X (X = MPC@4 ≤ 5 μg/mL)	X (X = MPC@4 ≤ 5 μg/mL)	X (X = MPC@4 ≤ 5 μg/mL)	Y (Y = 5 μg/mL < MPC@4 ≤ 20 μg/mL)	X (X = Ki ≤ 0.1 μM)	< 100 nM
